Data reported in patent publication US8703961B2, “Thiazole derivatives for the treatment of diseases such as cancer” (Merck Patent GmbH, priority 2009, dated 2014).

Legend:
TBK1 = target: T1, TBK1 (Homo sapiens, UniProt Q9UHD2); experiment: filter binding kinase assay; assay type: biochemical; settings: derived from % inhibition at 1 μM
T1 construct: purchased
T1 sequence (Q9UHD2 1-729): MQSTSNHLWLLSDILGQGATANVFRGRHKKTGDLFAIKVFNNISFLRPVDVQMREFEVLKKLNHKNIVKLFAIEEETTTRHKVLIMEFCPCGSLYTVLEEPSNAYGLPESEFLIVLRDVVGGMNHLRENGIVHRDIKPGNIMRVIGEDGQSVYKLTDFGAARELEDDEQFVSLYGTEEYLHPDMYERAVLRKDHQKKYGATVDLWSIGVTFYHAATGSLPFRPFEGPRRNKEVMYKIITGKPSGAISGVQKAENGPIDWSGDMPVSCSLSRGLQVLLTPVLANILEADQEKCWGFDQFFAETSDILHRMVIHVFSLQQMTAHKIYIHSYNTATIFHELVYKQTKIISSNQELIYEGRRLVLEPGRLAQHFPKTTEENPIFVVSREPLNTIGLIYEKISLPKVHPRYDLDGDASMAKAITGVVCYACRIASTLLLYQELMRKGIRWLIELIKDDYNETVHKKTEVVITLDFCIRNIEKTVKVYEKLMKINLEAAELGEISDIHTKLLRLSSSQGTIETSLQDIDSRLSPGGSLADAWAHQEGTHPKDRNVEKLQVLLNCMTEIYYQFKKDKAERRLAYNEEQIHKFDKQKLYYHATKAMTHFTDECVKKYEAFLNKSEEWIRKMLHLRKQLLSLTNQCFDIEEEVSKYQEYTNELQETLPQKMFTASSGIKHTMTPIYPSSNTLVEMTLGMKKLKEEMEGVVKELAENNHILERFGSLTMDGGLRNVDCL
Description: All kinase assays were carried out using the Multidrop 384 from Thermo-Fisher at room temperature in a total assay volume of 25.5 μl. 15 μl of an enzyme mix comprising enzyme and substrate in buffer are added to the test batch comprising either 0.5 μl of test substance, DMSO control or empty container. Test substances are pre-incubated in the presence of the enzyme and substrate for 5 minutes before the reaction is initiated by addition of 10 μl of ATP (concentration kinase-dependent of […]). The reaction is terminated by addition of 5 μl of orthophosphoric acid (50 mM). The test containers are then transferred onto P81 Unifilter plates by means of a “Packard Harvester” and dried in air. The dry Unifilter plates are sealed after the addition of MicroScint O, and the radioactivity is determined in a Packard Topcount NXT.

Compound | melting point | IC50 (TBK1)
CC(C)(C)OC(=O)Nc1ncsc1C#Cc1ccc(F)cc1 [Compound A15, tert-butyl N-{5-[2-(4-fluorophenyl)ethynyl]-1,3-thiazol-4-yl}carbamate] | 139 to 144 °C | 
Nc1ncc(-c2cnn(C3CCNCC3)c2)cc1-c1nc2[nH]c(-c3ccc(F)cc3)cc2s1 [Compound A31] |  | 0.01 to 1 µM
